The source of these data is publication PMC6070903 (Viruses, 2018).

In brackets after ≈: the same amount, converted by molar mass.

The test system of one data set is HSV-1 strain KOS. Description: Anti-HSV-1 plaque reduction assay in Vero cells. Format: cell-based, Herpes simplex virus. Particulars: for IC50: Human alphaherpesvirus 1, HSV-1, plaque reduction, 72 h, Vero cells; for Selectivity Index CC50/IC50: HSV-1, Vero CC50 / IC50.
The subject of data set [1] is HSV-2 (clinical isolates, acyclovir-sensitive). Put plainly: Anti-HSV-2 titer reduction assay in Vero cells. The data set is classed as cell-based, Herpes simplex virus. Conditions: for EC50: Human alphaherpesvirus 2, HSV-2, titer reduction, 48 h, Vero cells; for Selectivity Index CC50/EC50: HSV-2, Vero CC50 / EC50.
A further data set can be described thus: in vitro. Particulars: African green monkey.
The next data set relates to S. aureus ATCC 29213. Put plainly: Broth microdilution MIC. The data set is classed as cell-based. Conditions: Staphylococcus aureus, ATCC29213, 24 h, 35 ± 2 °C. On the technique in general: Broth dilution looks for growth in wells or tubes with falling amounts of substance.
Another data set has as its system B. cereus ATCC 11778. Put plainly: Broth microdilution MIC. Format: cell-based. Conditions: Bacillus cereus, ATCC11778, 24 h, 35 ± 2 °C.
In another data set the test system is E. coli ATCC 25922. Description: Broth microdilution MIC. The data set is classed as cell-based. Particulars: Escherichia coli, ATCC25922, 24 h, 35 ± 2 °C.
The next data set relates to P. aeruginosa ATCC 27853. Description: Broth microdilution MIC. Format: cell-based. Particulars: Pseudomonas aeruginosa, ATCC27853, 24 h, 35 ± 2 °C.
For a further data set, the system named is C. albicans ATCC 10231. Description: Broth microdilution MIC. The data set is classed as cell-based. Conditions: Candida albicans, ATCC10231, 48 h, 25 ± 2 °C.
Data set [2] deals with THP-1 cells. Put plainly: Pyocyanin-triggered ROS production in THP-1 cells, DCFH-DA. Format: cell-based, human. Particulars: 5 μM, pyocyanin 100 μM, THP-1 monocytes.
Data set [3] deals with Gram-positive bacteria S. aureus and B. cereus. Put plainly: Broth microdilution MIC, summary for both Gram-positive strains. Particulars: S. aureus and B. cereus together. Format: cell-based.
The subject of data set [4] is THP-1 cells. Description: Cell viability of THP-1 cells, WST-1 assay. Format: cell-based. Conditions: Homo sapiens, WST-1, 24 h, 0.25 to 20 μM, read-out: IC50 for the THP-1 cell line (viability). For orientation: Tetrazolium assays rely on reduction of a dye to a coloured formazan, in cell work by metabolically active cells.
Data set [5] deals with HL-60 (promyelocytic leukemia) cells. Details: method as in earlier work. Particulars: read-out: IC50 against HL-60 cells; cited from earlier work.
The next data set concerns NF-κB/AP-1. Description: NF-κB/AP-1 activity, SEAP reporter in LPS-stimulated THP-1-XBlue-MD2-CD14 cells. The data set is classed as cell-based, human. Particulars: 5 μM, LPS 1 μg/mL, 24 h, vs vehicle.
Another data set deals with IL-1β. Description: LPS-stimulated IL-1β secretion in PMA-differentiated THP-1 macrophages, ELISA. The data set is classed as cell-based, human. Particulars: 5 μM, LPS 1 μg/mL, 24 h. (ELISA stands for enzyme-linked immunosorbent assay.)
For the next data set, the system named is TNF-α. Put plainly: LPS-stimulated TNF-α secretion in PMA-differentiated THP-1 macrophages, ELISA. Conditions: 5 μM, LPS 1 μg/mL, 24 h. The data set is classed as cell-based, human.

For orientation: IC50 means the midpoint of a concentration-inhibition curve. By EC50 is commonly meant the concentration giving half of the maximal effect. Take `Nc1nc2c(ncn2COCCO)c(=O)[nH]1` [Acyclovir, acyclovir, reference compound]: the half-maximal inhibitory concentration (IC50) in the data set on HSV-1 strain KOS is 1.92 ± 0.23 mg/L (≈ 8.53 µM). Further, the EC50 in data set [1] was found to be 1.75 ± 0.33 mg/L (≈ 7.77 µM). In addition, in “in vitro”, the CC50 at 84 h was over 210 mg/L.
What is called MIC is the least concentration at which growth counts as inhibited. `C=C1CC[C@H](C(C)(C)O)/C=C/[C@@H](C)CCC1=O` [Compound 1, Litseagermacrane]: the “Selectivity Index CC50/EC50” value in [1] is reported as over 168.0. This compound registered an EC50 in [1] of 1.25 ± 0.2 mg/L (≈ 5.29 µM). Further, the MIC in the data set with S. aureus ATCC 29213 is over 64 mg/L; against B. cereus ATCC 11778, 64 mg/L (≈ 271 µM); against E. coli ATCC 25922, over 64 mg/L; with P. aeruginosa ATCC 27853 it was over 64 mg/L; against C. albicans ATCC 10231 it was over 64 mg/L. Besides, in the data set with THP-1 cells [2], the “Effect on production of ROS” value is “no significant antioxidant potential”. Further, in the data set “in vitro”, the CC50 at 84 h was over 210 mg/L.
Regarding `Cc1c(O)c(C=O)c(O)c(C(=O)CC(C)C)c1O` [Compound 2, Grandinol], in the data set on HSV-1 strain KOS, the “Selectivity Index CC50/IC50” value is over 170.7. In the data set with HSV-1 strain KOS, this compound had an IC50 of 1.23 ± 0.13 mg/L (≈ 4.88 µM). The MIC in the data set on S. aureus ATCC 29213 was 16 mg/L (≈ 63.4 µM); against B. cereus ATCC 11778 it was 16 mg/L (≈ 63.4 µM); with E. coli ATCC 25922, over 64 mg/L; against P. aeruginosa ATCC 27853, over 64 mg/L; against C. albicans ATCC 10231, over 64 mg/L. For the same compound, the “Effect on production of ROS” value in the data set with THP-1 cells [2] is given as “significantly increased the production of ROS”. Also, the “MIC range against both Gram-positive strains” value in data set [3] is 8 to 32 mg/L. This compound returned a CC50 at 84 h in the data set “in vitro” of over 210 mg/L.
Turning to `CCC(C)C(=O)c1c(O)cc(OC)c(C)c1O` (centres unmarked) [Compound 3, Pulverulentone B], the MIC is 32 mg/L (≈ 134 µM) against S. aureus ATCC 29213; 8 mg/L (≈ 33.6 µM) against B. cereus ATCC 11778; over 32 mg/L in the data set with E. coli ATCC 25922; over 32 mg/L against P. aeruginosa ATCC 27853; over 32 mg/L with C. albicans ATCC 10231. Besides, the “Effect on production of ROS” value in the data set with THP-1 cells [2] is “no significant antioxidant potential”. Besides, the “MIC range against both Gram-positive strains” value in data set [3] was 8 to 32 mg/L.
As for `C=C(C)C1CCC(=C)C2(O)CCC3(C)C(CC(C)C)c4c(O)c(C=O)c(O)c(C=O)c4OC3C12` (centres unmarked) [Compound 4, Eucalyptal A], the MIC with S. aureus ATCC 29213 was over 128 mg/L; with B. cereus ATCC 11778, 32 mg/L (≈ 68.3 µM); with E. coli ATCC 25922, over 128 mg/L; in the data set with P. aeruginosa ATCC 27853, over 128 mg/L; against C. albicans ATCC 10231, over 128 mg/L. Further, the IC50 is 1.2 µM in the data set on THP-1 cells [4] and 1.7 µM in data set [5].
In the case of `Cc1cc(=O)c2c(O)cc(O[C@@H]3O[C@H](COC(=O)C4=CC[C@H](C(C)(C)O)CC4)[C@@H](O)[C@H](O)[C@H]3O)cc2o1` [Compound 5, Cypellocarpin C], the “Selectivity Index CC50/EC50” value in data set [1] is recorded as over 287.7. For the same compound, the EC50 in data set [1] was 0.73 ± 0.11 mg/L (≈ 1.4 µM). Further, the MIC with S. aureus ATCC 29213, against B. cereus ATCC 11778, in the data set on E. coli ATCC 25922, against P. aeruginosa ATCC 27853 and in the data set with C. albicans ATCC 10231 was over 128 mg/L in each case. For the same compound, the CC50 at 84 h in “in vitro” was over 210 mg/L.
In the case of `COc1c(C)c(O)c2c(=O)cc(-c3ccc(O)cc3)oc2c1C` [Compound 6, Sideroxylin], in the data set on HSV-1 strain KOS, the “Selectivity Index CC50/IC50” value is on record as over 145.8. In the data set on HSV-1 strain KOS, this compound displayed an IC50 of 1.44 ± 0.14 mg/L (≈ 4.61 µM). Moreover, the MIC against S. aureus ATCC 29213 was over 64 mg/L; in the data set with B. cereus ATCC 11778 it was 64 mg/L (≈ 205 µM); against E. coli ATCC 25922 it was over 64 mg/L; with P. aeruginosa ATCC 27853, over 64 mg/L; in the data set with C. albicans ATCC 10231 it was over 64 mg/L. In addition, the “Effect on NF-κB/AP-1 activity” value in the data set on NF-κB/AP-1 is on record as “enhance it”. For the same compound, the CC50 at 84 h in the data set “in vitro” was over 210 mg/L.
Take `COc1cc2oc(-c3ccc(O)cc3)cc(=O)c2c(O)c1C` [Compound 7, 8-Demethylsideroxylin]: the MIC in the data set with S. aureus ATCC 29213 is over 128 mg/L; in the data set with B. cereus ATCC 11778, 128 mg/L (≈ 429 µM); in the data set with E. coli ATCC 25922, over 128 mg/L; against P. aeruginosa ATCC 27853 it was over 128 mg/L; with C. albicans ATCC 10231 it was over 128 mg/L. Moreover, in the data set with NF-κB/AP-1, the “Effect on NF-κB/AP-1 activity” value was “enhance it”.
In the case of `COc1ccc(-c2cc(=O)c3c(O)c(C)c(OC)c(C)c3o2)cc1` [Compound 8, Eucalyptin], the MIC with S. aureus ATCC 29213, in the data set on B. cereus ATCC 11778, in the data set with E. coli ATCC 25922, in the data set on P. aeruginosa ATCC 27853 and in the data set with C. albicans ATCC 10231 was over 64 mg/L in each case. In the data set with IL-1β, the “Effect on LPS-stimulated secretion of IL-1β” value is “increased the secretion of the IL-1β”. For the same compound, the “Effect on LPS-stimulated secretion of TNF-α” value in the data set with TNF-α was “Neither compound 8 nor 12 showed any influence on the secretion of TNF-α”.
On to `COc1ccc(-c2cc(=O)c3c(O)c(C)c(OC)cc3o2)cc1` [Compound 9, 8-Demethyleucalyptin], for which the MIC against S. aureus ATCC 29213, in the data set on B. cereus ATCC 11778, in the data set on E. coli ATCC 25922, in the data set on P. aeruginosa ATCC 27853 and against C. albicans ATCC 10231 was over 64 mg/L throughout. Moreover, the “Effect on NF-κB/AP-1 activity” value in the data set with NF-κB/AP-1 is “reduce the activation of NF-κB/AP-1”.
Turning to `c1cc2c(cc1[C@H]1OC[C@H]3[C@@H]1CO[C@@H]3c1ccc3c(c1)OCO3)OCO2` [Compound 10, Sesamin], the minimum inhibitory concentration (MIC) against S. aureus ATCC 29213, against B. cereus ATCC 11778, against E. coli ATCC 25922, in the data set on P. aeruginosa ATCC 27853 and against C. albicans ATCC 10231 was over 32 mg/L throughout.
Turning to `C[C@H]1[C@H](C)CC[C@]2(C(=O)O)CC[C@]3(C)C(=CC[C@@H]4[C@@]5(C)CC[C@H](O)C(C)(C)[C@@H]5CC[C@]43C)[C@H]12` [Compound 11, Ursolic acid], the minimal inhibitory concentration (MIC) is 128 mg/L (≈ 280 µM) with S. aureus ATCC 29213; 32 mg/L (≈ 70.1 µM) with B. cereus ATCC 11778; over 128 mg/L in the data set on E. coli ATCC 25922; over 128 mg/L against P. aeruginosa ATCC 27853; over 128 mg/L in the data set with C. albicans ATCC 10231.
For the compound `COc1cc(/C=C/C(=O)O[C@H]2CC[C@]3(C)[C@H]4C=C[C@]56OC(=O)[C@@]7(CC[C@@H](C)[C@H](C)[C@H]75)CC[C@@]6(C)[C@]4(C)CC[C@H]3C2(C)C)ccc1O` [Compound 12, Tereticornate A], the “Selectivity Index CC50/IC50” value in the data set on HSV-1 strain KOS is given as over 218.8. In addition, inhibition in the data set with HSV-1 strain KOS was half-maximal at 0.96 ± 0.12 mg/L (≈ 1.52 µM) (IC50). Further, the MIC against S. aureus ATCC 29213, against B. cereus ATCC 11778, in the data set with E. coli ATCC 25922, in the data set with P. aeruginosa ATCC 27853 and against C. albicans ATCC 10231 was over 32 mg/L each time. Moreover, in the data set with NF-κB/AP-1, the “Effect on NF-κB/AP-1 activity” value was “statistically significant inhibitory potential, stronger than that of prednisone”. The “Effect on LPS-stimulated secretion of IL-1β” value with IL-1β is listed as “attenuates the LPS-stimulated secretion of IL-1β”. In addition, the “Effect on LPS-stimulated secretion of TNF-α” value in the data set on TNF-α is listed as “Neither compound 8 nor 12 showed any influence on the secretion of TNF-α”. The same compound showed a CC50 at 84 h in “in vitro” of over 210 mg/L.
Consider `CN(C)[C@@H]1C(O)=C(C(N)=O)C(=O)[C@@]2(O)C(O)=C3C(=O)c4c(O)cccc4[C@@](C)(O)[C@H]3C[C@@H]12` [tetracycline, reference compound], for which the minimum inhibitory concentration (MIC) was 0.125 mg/L (≈ 0.281 µM) against S. aureus ATCC 29213, 0.03 mg/L (≈ 0.0675 µM) with B. cereus ATCC 11778, 1 mg/L (≈ 2.25 µM) in the data set with E. coli ATCC 25922 and 16 mg/L (≈ 36 µM) against P. aeruginosa ATCC 27853.
In the data set on C. albicans ATCC 10231, `Clc1ccc(C(Cn2ccnc2)OCc2ccsc2Cl)c(Cl)c1` (centres unmarked) [tioconazole, reference compound] registered an MIC of 4 mg/L (≈ 10.3 µM).
